Data set [1] concerns CQS D6-infected RBCs (P. falciparum). Kind of data set: Accumulation experiment in parasitized red blood cells, D6. In kind it is cell-based. Particulars: for Uptake: by 6 × 10^7 PRBCs after 1 hour of incubation, initial medium ∼ 5 µM, ±5%.
For data set [2], the system named is CQR Dd2-infected RBCs (P. falciparum). Kind of data set: Accumulation experiment in parasitized red blood cells, Dd2. In kind it is cell-based. As to conditions: for Uptake: by 6 × 10^7 PRBCs after 1 hour of incubation, initial medium ∼ 5 µM, ±5%.
Another data set concerns P. falciparum Dd2 (CQR). The data set is described as follows: Inhibition of P. falciparum growth. In kind it is cell-based. As to conditions: Plasmodium falciparum, DD2, 72 h, read-out: IC50 (nM) for P. falciparum Dd2.
For a further data set, the system named is P. falciparum D6 (CQS). Kind of data set: Inhibition of P. falciparum growth. In kind it is cell-based. As to conditions: Plasmodium falciparum, D6, 72 h, read-out: IC50 (nM) for P. falciparum D6.
Data set [3] can be described thus: General cytotoxicity, mitogen-stimulated murine spleenic lymphocytes. In kind it is cell-based. Particulars: mouse, mitogen-stimulated murine splenic lymphocytes.
In a further data set the test system is P. berghei. The data set is described as follows: Mouse efficacy against P. berghei. As to conditions: for Mouse survival (days): 1 × 30 mg/kg.
The subject of a further data set is β-hematin. Kind of data set: β-hematin inhibition. In kind it is biochemical. As to conditions: for IC50: read-out: β-hematin inhibition, 40 µM heme, acetate pH 4.8, Tween20, 24 hours at 37°C.
Data set [4] has as its system hemozoin production in D6 P. falciparum. The data set is described as follows: Hemozoin inhibition in cell culture. In kind it is cell-based. As to conditions: 24 hours.
The test system of data set [5] is hemozoin production in Dd2 P. falciparum. The data set is described as follows: Hemozoin inhibition in cell culture. In kind it is cell-based.
A short description of data set [6]: Signs of toxicity when administered to mice. In kind it is in vivo. As to conditions: administered to mice in the P. berghei experiments.
Data set [7] can be described thus: Heme-drug binding by optical titration. As to conditions: apparent; 2:1 heme to drug stoichiometry; 5 µM heme, phosphate buffer pH 5.7.
Setting [8] is: [concentration in DV / concentration in medium].

Where “and” joins values, the source holds several entries; their conditions need not be identical. Equal values may be shown once.

On to `CCN(CC)CCCC(C)Nc1ccnc2cc(Cl)ccc12` (stereo not shown) [CQ, chloroquine, reference compound], for which the “Uptake” value in data set [1] was found to be 7e-09 mol; in data set [2], 5e-09 mol. Moreover, the IC50 in the data set with P. falciparum Dd2 (CQR) stood at 102 nM; with P. falciparum D6 (CQS), 6.9 nM.
As to `CN(CCCNc1ccnc2cc(Cl)ccc12)CCCN1c2ccccc2CCc2ccccc21` [Compound 1], the Accumulation ratio in data set [1] (setting [8]) is given as 32,000; in data set [2] (setting [8]), 38,000. Also, the “Uptake” value in data set [1] was 1.6e-08 mol; in data set [2], 1.8e-08 mol. Besides, the “increase of DV concentration over initial medium concentration” value in data set [1] (initial medium concentration ∼ 5 µM) was 13,000 fold. In addition, the IC50 in data set [3] was found to be 700 nM; with β-hematin, 9000 nM. Moreover, the “Mouse survival (days)” value with P. berghei (oral) is “Mice euthanized day 3”. In addition, the “hemozoin formation by microscopy” value in data set [4] (100 nM drug) is “some hemozoin present”; in data set [5] (100 nM drug, 24 hours (not shown)), “also the case”.
For `Clc1ccc2c(NCCN3CCN(C(c4ccccc4)c4ccccc4)CC3)ccnc2c1` [Compound 4, N-(2-(4-Benzhydrylpiperazin-1-yl)ethyl)-7-chloroquinolin-4-amine], the values for the IC50 (in data set [3]; with β-hematin) were 1900 nM and 2500 nM, respectively. For the same molecule, the “Mouse survival (days)” value in the data set with P. berghei (subcutaneous) is recorded as “Mice euthanized day 3”. In addition, the “increase in survival days compared to control animals” value in the data set on P. berghei (4 × 30 mg/kg, oral) is approximately 10 days.
Take `Clc1ccc2c(NCCCN3CCN(C(c4ccccc4)c4ccccc4)CC3)ccnc2c1` [Compound 5, N-(3-(4-Benzhydrylpiperazin-1-yl)propyl)-7-chloroquinolin-4-amine]: the IC50 came out at 1100 nM in [3] and 3500 nM in the data set with β-hematin.
Consider `Clc1ccc2c(NCCCN3CCCN(C(c4ccccc4)c4ccccc4)CC3)ccnc2c1` [Compound 6, N-(3-(4-Benzhydryl-1,4-diazepan-1-yl)propyl)-7-chloroquinolin-4-amine], for which, in data set [3], the IC50 stood at 700 nM.
The same measure, in the same setting: to `Clc1ccc(C(c2ccccc2)N2CCN(CCNc3ccnc4cc(Cl)ccc34)CC2)cc1` (stereo not shown) [Compound 7, 7-Chloro-N-(2-(4-((4-chlorophenyl)(phenyl)methyl)piperazin-1-yl)ethyl)quinolin-4-amine] belongs 1400 nM.
On the same count and under the same terms, for `Clc1ccc(C(c2ccccc2)N2CCN(CCCNc3ccnc4cc(Cl)ccc34)CC2)cc1` (stereo not shown) [Compound 8, 7-Chloro-N-(3-(4-((4-chlorophenyl)(phenyl)methyl)piperazin-1-yl)propyl)quinolin-4-amine] the value was 800 nM.
The same measure, in the same setting: to `Clc1ccc(C(c2ccccc2)N2CCCN(CCCNc3ccnc4cc(Cl)ccc34)CC2)cc1` (stereo not shown) [Compound 9, 7-Chloro-N-(3-(4-((4-chlorophenyl)(phenyl)methyl)-1,4-diazepan-1-yl)propyl)quinolin-4-amine] belongs 900 nM; to `Fc1ccc(C(c2ccc(F)cc2)N2CCN(CCCNc3ccnc4cc(Cl)ccc34)CC2)cc1` [Compound 10, N-(3-(4-(Bis(4-fluorophenyl)methyl)piperazin-1-yl)propyl)-7-chloroquinolin-4-amine], 4100 nM; to `Clc1ccc2c(NCCN3CCCN(C4c5ccccc5-c5ccccc54)CC3)ccnc2c1` [Compound 11, N-(2-(4-(9H-Fluoren-9-yl)-1,4-diazepan-1-yl)ethyl)-7-chloroquinolin-4-amine], 2500 nM.
`Clc1ccc2c(NCCCN3CCCN(C4c5ccccc5-c5ccccc54)CC3)ccnc2c1` [Compound 12, N-(3-(4-(9H-Fluoren-9-yl)-1,4-diazepan-1-yl)propyl)-7-chloroquinolin-4-amine] gave an IC50 in [3] of 2500 nM.
As to `CN(CCCN1c2ccccc2CCc2ccccc21)CCNc1ccnc2cc(Cl)ccc12` [Compound 13, N^1-(7-chloroquinolin-4-yl)-N^2-(3-(10,11-dihydro-5H-dibenzo[b,f]azepin-5-yl)propyl)-N^2-methylethane-1,2-diamine], the IC50 is 1400 nM in [3] and 10000 nM with β-hematin.
As to `Clc1ccc2c(NCCCN3CCN(C(c4ccccc4)(c4ccccc4)c4ccccc4)CC3)ccnc2c1` [Compound 15, 7-Chloro-N-(3-(4-tritylpiperazin-1-yl)propyl)quinolin-4-amine], the “Mouse survival (days)” value in the data set with P. berghei (subcutaneous) is listed as “Mice euthanized day 3”. Besides, the mice cured in the data set on P. berghei (4 × 30 mg/kg, oral, parasite-free on day 30 post-infection) is recorded as 1/3. The “β-hematin inhibition (µM)” value with β-hematin (IC50, 40 µM heme, acetate pH 4.8, Tween20, 24 hours at 37°C) was “insoluble”.
Consider `Clc1ccc2c(NCCCN3CCN(C4C5CC6CC(C5)CC4C6)CC3)ccnc2c1` (stereo not shown) [Compound 17, N-(3-(4-(Adamant-2-yl)piperazin-1-yl)propyl)-7-chloroquinolin-4-amine], for which, in the data set with β-hematin, the IC50 came out at 14000 nM.
Take `Clc1ccc2c(NCCN3CCC(NC(c4ccccn4)c4ccccn4)CC3)ccnc2c1` [Compound 21, 7-Chloro-N-(2-(4-(dipyridin-2-ylmethylamino)piperidin-1-yl)ethyl)quinolin-4-amine]: the mice cured in the data set with P. berghei (second trial, 4 × 44 mg/kg, oral (equimolar to 30 mg/kg CQ)) was 3 out of 3 and 3/3. Moreover, the IC50 in the data set with β-hematin is ~2000 nM and 2000 nM.
On to `Clc1ccc2c(NCCCN3CCC(NC(c4ccccn4)c4ccccn4)CC3)ccnc2c1` [Compound 22, 7-Chloro-N-(3-(4-(dipyridin-2-ylmethylamino)piperidin-1-yl)propyl)quinolin-4-amine], for which the results for the IC50 in the data set on P. falciparum Dd2 (CQR) and with β-hematin were 1.6 nM and 1600 nM, respectively. Moreover, the mice cured result in the data set on P. berghei (4 × 30 mg/kg, oral, parasite-free on day 30 post-infection, 30 mg/kg) was “two of the three and 2/3”; with P. berghei (second trial, 4 × 46 mg/kg, oral (equimolar to 30 mg/kg CQ)), 9 out of 10 and 9/10. Further, the “signs of toxicity in mice” value in data set [6] is reported as “no obvious signs of toxicity”. The “hemozoin formation by microscopy” value in [4] (10 nM drug) is given as “appeared to preclude hemozoin formation”; in data set [5] (10 nM drug, 24 hours) it was “appeared to preclude hemozoin formation”.
For the molecule `OCCN1CCN(C(c2ccccc2)c2ccccc2)CC1` [Compound 26, 2-(4-Benzhydrylpiperazin-1-yl)ethanol], the “Kd [µM (app)]” value in data set [7] is given as “no activity”.
